Calls of active or inactive are those of the source. The rule behind the calls is not given here. Bridge positions count the residues as written; N and C are the ends. Square brackets hold non-standard residues; d marks the D form. Peptide text beside a SMILES is read from it. * marks the point of attachment. X1 = CC[C@H](C)CCCCC(=O)*; Dab = NCC[C@H](N)C(=O)O
Assays:
U-937 [1] = test: Antiinflammatory activity in human U937 cells assessed as inhibition of LPS-induced IL-6 production up to 40 microg/ml after 24 hrs by ELISA relative to control; type: functional
U-937 [2] = test: Antiinflammatory activity in human U937 cells assessed as inhibition of LPS-induced TNF-alpha production up to 40 microg/ml after 24 hrs by ELISA relative to control; type: functional
Escherichia coli [3] = test: Antimicrobial activity against Escherichia coli AS 1.349 assessed as induction of outer membrane permeabilization by measuring NPN uptake up to 50 uM by fluorescence assay; type: functional, organism-based
Staphylococcus aureus [4] = test: Antimicrobial activity against Staphylococcus aureus AS 1.72 assessed as induction of outer membrane permeabilization by measuring NPN uptake up to 50 uM by fluorescence assay; type: functional, organism-based
[5] = Self-assembly property assessed as diameter of monodispersed micelles at 1 mg/ml at pH 7 by DLS method; type: physicochemical
Staphylococcus aureus [6] = test: Antimicrobial activity against Staphylococcus aureus AS 1.72 after 18 hrs by micro dilution method; type: functional; settings: AS 1.72, 18 h
Lactococcus lactis = test: Antimicrobial activity against Streptococcus lactis AS 1.1690 after 18 hrs by micro dilution method; type: functional; settings: AS 1.1690, 18 h
Enterococcus faecium = test: Antimicrobial activity against Enterococcus faecium CGMCC 1.2334 after 18 hrs by micro dilution method; type: functional; settings: CGMCC 1.2334, 18 h
Lipid bilayer [7] = test: Induction of membrane permeabilization in calcein loaded LPS/PC/PG large unilamellar vesicles assessed as calcein leakage after 15 mins by fluorescence assay
Lipid bilayer [8] = test: Induction of membrane permeabilization in calcein loaded LPS/PC/PG large unilamellar vesicles assessed as calcein leakage at 50 uM after 15 mins by fluorescence assay relative to control
Staphylococcus aureus [9] = test: Antimicrobial activity against Staphylococcus aureus AS 1.72 assessed as induction of bacterial cytoplasmic membrane depolarization at 2 times MIC after 6 mins by diSC3-5 dye-based fluorescence assay; type: functional, organism-based
Pseudomonas aeruginosa = test: Antimicrobial activity against Pseudomonas aeruginosa CGMCC 1.860 after 18 hrs by micro dilution method; type: functional; settings: CGMCC 1.860, 18 h
Enterococcus faecalis = test: Antimicrobial activity against Enterococcus faecalis CGMCC 1.595 after 18 hrs by micro dilution method; type: functional; settings: CGMCC 1.595, 18 h
Lipid bilayer [10] = test: Induction of membrane permeabilization in calcein loaded PC/cholesterol large unilamellar vesicles assessed as calcein leakage at 50 uM after 10 mins by fluorescence assay relative to control
[11] = Self-assembly property assessed as diameter of monodispersed micelles at 1 mg/ml at pH 7 by TEM analysis; type: physicochemical
[12] = Hemolytic activity against human erythrocytes after 1 hr; type: ADME, cell-based, Erythrocyte
Escherichia coli [13] = test: Antimicrobial activity against Escherichia coli AS 1.349 assessed as induction of outer membrane permeabilization by measuring NPN uptake by fluorescence assay; type: functional, organism-based
HeLa = test: Cytotoxicity against human HeLa cells assessed as reduction in cell viability after 1 hr by MTT assay; type: functional, cell-based
[14] = Self-assembly property assessed as diameter of monodispersed micelles at 1 mg/ml at pH 2 by DLS method; type: physicochemical
MCF7 = test: Cytotoxicity against human MCF7 cells assessed as reduction in cell viability after 1 hr by MTT assay; type: functional, cell-based; settings: MCF7, 1 h
Escherichia coli [15] = test: Antimicrobial activity against Escherichia coli AS 1.349 after 18 hrs by micro dilution method; type: functional; settings: AS 1.349, 18 h
A-375 = test: Cytotoxicity against human A375 cells assessed as reduction in cell viability after 1 hr by MTT assay; type: functional, cell-based; settings: A-375, 1 h
Staphylococcus aureus [16] = test: Antimicrobial activity against Staphylococcus aureus AS 1.72 assessed as induction of outer membrane permeabilization by measuring NPN uptake by fluorescence assay; type: functional, organism-based
Bacillus cereus = test: Antimicrobial activity against Bacillus cereus AS 1.126 after 18 hrs by micro dilution method; type: functional; settings: AS 1.126, 18 h

Question: For `CC[C@H](C)CCCCC(=O)N[C@@H](CCN)C(=O)N[C@H](C(=O)N[C@@H](CCN)C(=O)N[C@H]1CCNC(=O)[C@H]([C@@H](C)O)NC(=O)[C@H](CCN)NC(=O)[C@H](CCN)NC(=O)[C@H](CC(C)C)NC(=O)[C@@H](Cc2ccccc2)NC(=O)[C@H](CCN)NC1=O)[C@@H](C)O` (X1-[Dab]T[Dab][Dab][Dab][dF]L[Dab][Dab]T; lactam 4-C), which “inhibition (INH)” value (U-937 [1]) is on record?
Answer: Its value is 44%.

Question: What about the “inhibition (INH)” value (U-937 [2]) of the same compound?
Answer: The value was 28%.

Question: Which Activity (Escherichia coli [3]) does the source give for GENTAMICIN here?
Answer: Its Activity is “Active”.

Question: What about the Activity (Staphylococcus aureus [4]) of the same compound?
Answer: Its Activity is “Active”.

Question: What does the source list for H-SKVWRHWRRFWHRAHRKL-OH?
Answer: Activity [5]: 60 nm; MIC (Staphylococcus aureus [6]): 3.13 µM; MIC (Lactococcus lactis): 3.13 µM; MIC (Enterococcus faecium): 1.56 µM; Activity (Lipid bilayer [7]): Dose-dependent effect; Activity (Lipid bilayer [8]): 62%; Activity (Staphylococcus aureus [9]): Active; MIC (Pseudomonas aeruginosa): 1.56 µM; MIC (Enterococcus faecalis): 3.13 µM; Activity (Lipid bilayer [10]): 20%; Activity [11]: 141 nm; HC50 at 1 h [12]: > 500 µM; Activity (Escherichia coli [13]): Dose-dependent effect; IC50 (HeLa): 113 µM; Activity [14]: 3990 nm; IC50 (MCF7): 51.9 µM; MIC (Escherichia coli [15]): 6.25 µM; IC50 (A-375): > 125 µM; Activity (Staphylococcus aureus [16]): Dose-dependent effect; MIC (Bacillus cereus): 3.13 µM
